US10603296B1, “Compositions and methods for diagnosis and treatment of neuromuscular disorders” (United States of America as represented by the Secretary of …, priority 2019, dated 2020)
Entries after “also recorded” stand apart in the source; their conditions may differ.

What was measured:
[1] = test system: G-protein Gi1α; settings: literature (Galbiati et al., Biochem J 313:717-720); cited from earlier work
[2] = room temperature; cited from earlier work
[3] = test system: alpha-smooth muscle actin (α-SMA); experiment: BioMAP human primary cell system mimicking myofibroblast development: alpha-smooth muscle actin level; type: cell-based; settings: human primary lung fibroblasts stimulated with TGF-β and TNF-α, 24 hours; 2.6, 7.8, 23 and 70 μM; dose-dependent (FIG. 4)
Procedure: Phenotypic profiling, including antifibrotic activity, was conducted across 12 human primary cell-based systems as part of DiscoverX's BioMAP Diversity Plus program. These systems are designed to model complex human tissue and disease biology of the vasculature, skin, lung, and inflammatory tissues. […] Cell-based activated systems were incubated with pure N-acetylhistamine for 24 to 72 hours. Protein-based biomarkers from activated cell systems were measured and compared with controls. Biomarker activities were annotated when 2 or more consecutive concentrations change in the same directions relative to vehicle controls, were outside of the significance envelope and had at least one concentration with an effect size >20% (log 10 ratio)>0.1.
In our study, N-acetylhistamine, an […] involved in histadine metabolism, caused a significant and dose-dependent decrease in alpha-smooth muscle actin (α-SMA), a protein involved in muscle contraction, cell motility, structure and integrity and a marker for activated myofibroblast phenotype, in a human cell system mimicking myofibroblast development. In this system, human primary lung fibroblasts were stimulated with TGF-β and TNF-α and incubated with the test agent, drug control, or vehicle control for 24 hours. A negative, non-stimulated system was also included.

| Compound | effect on myristoylation of Gi1α [1] | stability of the powder [2] | change in alpha-smooth muscle actin (α-SMA) compared to internal controls [3] |
| --- | --- | --- | --- |
| CCCCCCCCCCCCC(O)C(=O)O (stereo not drawn) [2-hydroxymyristate] | inhibits |  |  |
| CC(=O)NCCc1c[nH]cn1 [N-acetylhistamine] |  | stable at room temperature | significantly decreased; also recorded: lowered |
